Test results: ChEMBL document CHEMBL1134446, “Polyamine analogue antidiarrheals: a structure-activity study” (J Med Chem, 2001)

Assays:
Canis familiaris [1] = assay: Distribution in kidney was determined after DEHSPM dosing of 2.0 mg/kg/day for 29 days in dog(cu dose-52.4) and sacrificed at 10 days PLD(cu dose-22 mg/kg); type: ADME, organism-based, Canis lupus familiaris; conditions: in vivo, 240 h
Canis familiaris [2] = assay: Distribution in kidney was determined after DESPM dosing of 1.87 mg/kg/day for 28 days in dog(cu dose-52.4) and sacrificed at 10 days PLD(cu dose-52.4 mg/kg); type: ADME, organism-based, Canis lupus familiaris; conditions: in vivo, 240 h
Canis familiaris [3] = assay: MESPM/MEHSPH Distribution in kidney was determined after DEHSPM dosing of 2.0 mg/kg/day for 29 days in dog(cu dose-52.4) and sacrificed at 10 days PLD(cu dose-58 mg/kg); type: ADME, organism-based, Canis lupus familiaris; conditions: in vivo, 240 h
Canis familiaris [4] = assay: Distribution in kidney was determined after DEHSPM dosing of 2.0 mg/kg/day for 29 days in dog(cu dose-52.4) and sacrificed at 10 days PLD(cu dose-58 mg/kg); type: ADME, organism-based, Canis lupus familiaris; conditions: in vivo, 240 h
Canis familiaris [5] = assay: Spermidine Distribution in liver was determined after DEHSPM dosing of 2.0 mg/kg/day for 29 days in dog(cu dose-52.4) and sacrificed at 10 days PLD(cu dose-58 mg/kg); type: ADME, organism-based, Canis lupus familiaris; conditions: in vivo, 240 h
Canis familiaris [6] = assay: Distribution in kidney was determined after DESPM dosing of 6.0 mg/kg/day for 4.5 days in dog(cu dose-52.4) and sacrificed at 75 days PLD(cu dose-27 mg/kg); type: ADME, organism-based, Canis lupus familiaris; conditions: in vivo, 1800 h
Canis familiaris [7] = assay: Distribution in liver was determined after DESPM dosing of 8.0 mg/kg/day for 4.5 days in dog(cu dose-52.4) and sacrificed at 10 days PLD(cu dose-36 mg/kg); type: ADME, organism-based, Canis lupus familiaris; conditions: in vivo, 240 h
[8] = The chronic toxicity was determined in female CD1 mice after (ip) administration; type: functional; conditions: Mus musculus
Canis familiaris [9] = assay: Distribution in liver was determined after DESPM dosing of 6.0 mg/kg/day for 4.5 days in dog(cu dose-52.4) and sacrificed at 75 days PLD(cu dose-27 mg/kg); type: ADME, organism-based, Canis lupus familiaris; conditions: in vivo, 1800 h
Canis familiaris [10] = assay: MESPM/MEHSPH Distribution in kidney was determined after DEHSPM dosing of 2.0 mg/kg/day for 29 days in dog(cu dose-52.4) and sacrificed at 10 days PLD(cu dose-22 mg/kg); type: ADME, organism-based, Canis lupus familiaris; conditions: in vivo, 240 h
[11] = The acute toxicity was determined in female CD1 mice after (ip) administration; type: functional; conditions: Mus musculus
Canis familiaris [12] = assay: putrescine Distribution in kidney was determined after DEHSPM dosing of 2.0 mg/kg/day for 29 days in dog(cu dose-52.4) and sacrificed at 10 days PLD(cu dose-22 mg/kg); type: ADME, organism-based, Canis lupus familiaris; conditions: in vivo, 240 h
Canis familiaris [13] = assay: Distribution in liver was determined after DEHSPM dosing of 2.0 mg/kg/day for 29 days in dog(cu dose-52.4) and sacrificed at 10 days PLD(cu dose-58 mg/kg); type: ADME, organism-based, Canis lupus familiaris; conditions: in vivo, 240 h
Canis familiaris [14] = assay: putrescine Distribution in liver was determined after DESPM dosing of 1.87 mg/kg/day for 28 days in dog(cu dose-52.4) and sacrificed at 75 days PLD(cu dose-52.4 mg/kg); type: ADME, organism-based, Canis lupus familiaris; conditions: in vivo, 1800 h
Canis familiaris [15] = assay: Spermine Distribution in kidney was determined after DESPM dosing of 1.87 mg/kg/day for 28 days in dog(cu dose-52.4) and sacrificed at 10 days PLD(cu dose-52.4 mg/kg); type: ADME, organism-based, Canis lupus familiaris; conditions: in vivo, 240 h
Canis familiaris [16] = assay: Spermine Distribution in kidney was determined after DESPM dosing of 8.0 mg/kg/day for 4.5 days in dog(cu dose-52.4) and sacrificed at 75 days PLD(cu dose-36 mg/kg); type: ADME, organism-based, Canis lupus familiaris; conditions: in vivo, 1800 h
Canis familiaris [17] = assay: MESPM/MEHSPH Distribution in liver was determined after DESPM dosing of 6.0 mg/kg/day for 4.5 days in dog(cu dose-52.4) and sacrificed at 75 days PLD(cu dose-27 mg/kg); type: ADME, organism-based, Canis lupus familiaris; conditions: in vivo, 1800 h
Canis familiaris [18] = assay: MESPM/MEHSPH Distribution in kidney was determined after DESPM dosing of 4 mg/kg/day for 13 days in dog(cu dose-52.4) and sacrificed at 75 days PLD(cu dose-52 mg/kg); type: ADME, organism-based, Canis lupus familiaris; conditions: in vivo, 1800 h
Canis familiaris [19] = assay: Spermidine Distribution in liver was determined after DESPM dosing of 6.0 mg/kg/day for 4.5 days in dog(cu dose-52.4) and sacrificed at 10 days PLD(cu dose-27 mg/kg); type: ADME, organism-based, Canis lupus familiaris; conditions: in vivo, 240 h
Canis familiaris [20] = assay: putrescine Distribution in kidney was determined after DESPM dosing of 1.87 mg/kg/day for 28 days in dog and sacrificed at 10 days PLD(cu dose-52.4 mg/kg); type: ADME, organism-based, Canis lupus familiaris; conditions: in vivo, 240 h
Canis familiaris [21] = assay: Spermine Distribution in kidney was determined after DESPM dosing of 4 mg/kg/day for 13 days in dog(cu dose-52.4) and sacrificed at 10 days PLD(cu dose-52 mg/kg); type: ADME, organism-based, Canis lupus familiaris; conditions: in vivo, 240 h
Canis familiaris [22] = assay: Spermidine Distribution in kidney was determined after DESPM dosing of 6.0 mg/kg/day for 4.5 days in dog(cu dose-52.4) and sacrificed at 75 days PLD(cu dose-27 mg/kg); type: ADME, organism-based, Canis lupus familiaris; conditions: in vivo, 1800 h
Canis familiaris [23] = assay: Spermidine Distribution in liver was determined after DESPM dosing of 6.0 mg/kg/day for 4.5 days in dog(cu dose-52.4) and sacrificed at 75 days PLD(cu dose-27 mg/kg); type: ADME, organism-based, Canis lupus familiaris; conditions: in vivo, 1800 h
Canis familiaris [24] = assay: MESPM/MEHSPH Distribution in liver was determined after DESPM dosing of 1.87 mg/kg/day for 28 days in dog(cu dose-52.4) and sacrificed at 75 days PLD(cu dose-52.4 mg/kg); type: ADME, organism-based, Canis lupus familiaris; conditions: in vivo, 1800 h
Canis familiaris [25] = assay: Spermidine Distribution in kidney was determined after DESPM dosing of 6.0 mg/kg/day for 4.5 days in dog(cu dose-52.4) and sacrificed at 10 days PLD(cu dose-27 mg/kg); type: ADME, organism-based, Canis lupus familiaris; conditions: in vivo, 240 h
Canis familiaris [26] = assay: MESPM/MEHSPH Distribution in kidney was determined after DESPM dosing of 4 mg/kg/day for 13 days in dog(cu dose-52.4) and sacrificed at 10 days PLD(cu dose-52 mg/kg); type: ADME, organism-based, Canis lupus familiaris; conditions: in vivo, 240 h
Canis familiaris [27] = assay: Spermine Distribution in kidney was determined after DESPM dosing of 1.87 mg/kg/day for 28 days in dog(cu dose-52.4) and sacrificed at 75 days PLD(cu dose-52.4 mg/kg); type: ADME, organism-based, Canis lupus familiaris; conditions: in vivo, 1800 h
Rattus norvegicus [28] = assay: Stool output of rat over the 6-h collection period when a dose of 14.3 mg/kg (35.4 administered; type: functional
Rattus norvegicus [29] = assay: Weight loss of rat over the 6-h experimental period when a dose of 9.4 mg/kg (23.3 administered; type: functional
Canis familiaris [30] = assay: Spermidine Distribution in liver was determined after DESPM dosing of 1.87 mg/kg/day for 28 days in dog(cu dose-52.4) and sacrificed at 75 days PLD(cu dose-52.4 mg/kg); type: ADME, organism-based, Canis lupus familiaris; conditions: in vivo, 1800 h
Canis familiaris [31] = assay: MESPM/MEHSPH Distribution in kidney was determined after DESPM dosing of 6.0 mg/kg/day for 4.5 days in dog(cu dose-52.4) and sacrificed at 10 days PLD(cu dose-27 mg/kg); type: ADME, organism-based, Canis lupus familiaris; conditions: in vivo, 240 h
Canis familiaris [32] = assay: putrescine Distribution in liver was determined after DESPM dosing of 1.87 mg/kg/day for 28 days in dog(cu dose-52.4) and sacrificed at 10 days PLD(cu dose-52.4 mg/kg); type: ADME, organism-based, Canis lupus familiaris; conditions: in vivo, 240 h
Canis familiaris [33] = assay: putrescine Distribution in liver was determined after DESPM dosing of 6.0 mg/kg/day for 4.5 days in dog(cu dose-52.4) and sacrificed at 10 days PLD(cu dose-27 mg/kg); type: ADME, organism-based, Canis lupus familiaris; conditions: in vivo, 240 h

CCNCCCCNCCCCNCCCCNCC [DIETHYLHOMOSPERMINE]
Wet weight of tissue (Canis familiaris [1]): 0 nM/g
Wet weight of tissue (Canis familiaris [2]): 50 nM/g
Wet weight of tissue (Canis familiaris [3]): 78 nM/g
Wet weight of tissue (Canis familiaris [4]): 98 nM/g
Wet weight of tissue (Canis familiaris [5]): 50 nM/g
Wet weight of tissue (Canis familiaris [6]): 0 nM/g
Wet weight of tissue (Canis familiaris [7]): 29 nM/g
LD50 [8]: 38 mg/kg
Wet weight of tissue (Canis familiaris [9]): 0 nM/g
Wet weight of tissue (Canis familiaris [10]): 3 nM/g
LD50 [11]: 300 mg/kg
Wet weight of tissue (Canis familiaris [12]): 0 nM/g
Wet weight of tissue (Canis familiaris [13]): 80 nM/g

CCNCCCNCCCCNCCCNCC [BIS(ETHYL)SPERMINE]
Wet weight of tissue (Canis familiaris [14]): 28 nM/g
Wet weight of tissue (Canis familiaris [15]): 998 nM/g
Wet weight of tissue (Canis familiaris [16]): 624 nM/g
Wet weight of tissue (Canis familiaris [17]): 1 nM/g
Wet weight of tissue (Canis familiaris [18]): 0 nM/g
Wet weight of tissue (Canis familiaris [19]): 181 nM/g
Wet weight of tissue (Canis familiaris [20]): 0 nM/g
Wet weight of tissue (Canis familiaris [21]): 277 nM/g
Wet weight of tissue (Canis familiaris [22]): 90 nM/g
Wet weight of tissue (Canis familiaris [23]): 244 nM/g
Wet weight of tissue (Canis familiaris [24]): 0 nM/g
LD50 [8]: 80 mg/kg
Wet weight of tissue (Canis familiaris [25]): 60 nM/g
Wet weight of tissue (Canis familiaris [26]): 7 nM/g
Wet weight of tissue (Canis familiaris [27]): 540 nM/g
Stool output (Rattus norvegicus [28]): <0.6 g (350g of rat weight)-1
Weight loss (Rattus norvegicus [29]): <5.3 g
Wet weight of tissue (Canis familiaris [30]): 198 nM/g
LD50 [11]: 400 mg/kg
Wet weight of tissue (Canis familiaris [31]): 10 nM/g
Wet weight of tissue (Canis familiaris [32]): 86 nM/g
Wet weight of tissue (Canis familiaris [33]): 87 nM/g
